Experimental data taken from patent USRE47193E1, “Selectively substituted quinoline compounds” (EISAI R&D MANAGEMENT CO., LTD., priority 2013, dated 2019).

System: NZB/W lupus disease model
Test: NZBxNZW (NZB/W) lupus disease model
Type: in vivo, mouse
Details: for mortality: 33, 100 or 300 mg/kg QD PO, 21 weeks of treatment; for impact on anti-dsDNA titers: after 17 weeks of dosing, at 46 weeks of age
Method: FIG. 2A through FIG. 2C show results of testing ER-899742 in the NZBxNZW strain (abbreviated hereafter as NZBWF1/J or NZB/W) lupus disease model. Figure Legend: Female NZBWF1/J mice were received at 5 weeks of age, baseline bleeds were performed, and mice were monitored for disease progression by following anti-dsDNA titers. At 27 weeks of age, mice were randomized into groups with equivalent median anti-dsDNA titers and treated at 29 weeks of age with Vehicle (Veh; 0.5% methyl-cellulose) alone or 33, 100, or 300 mg/kg once-a-day orally (QD PO). At 46 weeks of age after 17 weeks of treatment mice were bled and tested for anti-dsDNA titers. All mice were sacrificed at 50 weeks of age (21 weeks of compound treatment). (FIG. 2A) Just prior to termination at 50 weeks of age (following 21 weeks of treatment), urine was collected from individual mice, and the Urinary Albumin Creatinine Ratio (UACR, proteinuria) was determined for each animal as an indirect measure of kidney function. (FIG. 2B) Timecourse of mortality observed in this study for the highest and lowest dose groups. […] (FIG. 2C) Impact of treatment on anti-dsDNA titers after 17 weeks of dosing, at 46 weeks of age.
FIG. 4A through FIG. 4C show results of testing ER-899464 in the NZB/W disease model in the same experiment as FIG. 2A. Figure Legend: (FIG. 4A) Just prior to termination at 50 weeks of age (following 21 weeks of treatment), urine was collected from individual mice, and the Urinary Albumin Creatinine Ratio (UACR, proteinuria) was determined for each animal as an indirect measure of kidney function. (FIG. 4B) Summary of mortality observed in this study for the highest and lowest dose groups. […] ([…]) Impact of treatment on anti-dsDNA titers after 17 weeks of dosing, at 46 weeks of age.
Mouse Lupus Disease Models.
Mouse lupus disease model strains. Female NZBWF1/J mice were purchased from Jackson Labs (Bar Harbor, Me.), both of which manifest with spontaneous lupus disease. Female DBA/1 mice were purchased from Harlan Laboratories (Indianapolis, Ind.) and at the indicated ages given an intraperitoneal injection of 0.5 ml pristane (2,6,10,14-Tetramethylpentadecane; Sigma, St. Louis, Mo.) to chemically induce lupus disease or of 0.5 ml PBS to generate age-matched, non-diseased control mice.
Female NZBWF1/J mice were received at 5 weeks of age, baseline bleeds were performed, and mice were monitored for disease progression by following anti-dsDNA titers. At 27 weeks of age, mice were randomized into groups with equivalent median anti-dsDNA titers and treated at 29 weeks of age with Vehicle (Veh; 0.5% methyl-cellulose) alone or 33, 100, or 300 mg/kg once-a-day orally (QD PO). At 46 weeks of age after 17 weeks of treatment, mice were bled and tested for anti-dsDNA titers. All mice were sacrificed at 50 weeks of age (21 weeks of compound treatment).
At the end of the experiment kidneys were collected from the animals tested in FIG. 2A through 2C, fixed in 10% formalin for 24 hours, embedded in paraffin, and H&E stained sections were generated for histopathology assessment in a blinded fashion (Grade 0/1+: WNL to minimal; Grade 2: Mild; Grade 3: Moderate to Marked; Grade 4: Severe).
Assessment of auto-antibody titers by ELISA. Anti-dsDNA, -Sm/nRNP, -RiboP, and -Histone titers were evaluated by standard ELISA approach. Briefly, 96-well EIA/RIA ELISA plates (Corning) were coated with 100 ul of diluted antigen in PBS for 90 minutes at room temperature as follows (final concentrations indicated): 10 U/ml Sm/nRNP complex (Immunovision), 10 ug/ml calf thymus dsDNA (Sigma), 5 U/ml RiboP (Immunovision), and 5 ug/ml Histone (Immunovision). Plates were washed with PBS/0.05% Tween20 (washing buffer) and blocked overnight with PBS/1% BSA (blocking buffer) at 4° C. […]

[1] = several doses between 33 and 300 mg/kg

| SMILES | mortality | impact on anti-dsDNA titers | proteinuria (UACR) [1] | survival [1] | % combined incidence of Grade 3 and 4 (33 mpk) [%] | Number of mice with GN Score 0 (33 mpk QD PO, kidney histopathology, Grade 0/1+: WNL to minimal) | Number of mice with GN Score 2+ (33 mpk, Grade 2: Mild) | Number of mice with GN Score 3+ (33 mpk, Grade 3: Moderate to Marked) | Number of mice with GN Score 4+ (33 mpk, Grade 4: Severe) | % combined incidence of Grade 3 and 4 (100 mpk) [%] | Number of mice with GN Score 0 (100 mpk) | Number of mice with GN Score 2+ (100 mpk) | Number of mice with GN Score 3+ (100 mpk) | Number of mice with GN Score 4+ (100 mpk) | % combined incidence of Grade 3 and 4 (300 mpk) [%] | Number of mice with GN Score 0 (300 mpk) | Number of mice with GN Score 2+ (300 mpk) | Number of mice with GN Score 3+ (300 mpk) | Number of mice with GN Score 4+ (300 mpk) | histological signs of glomerulonephritis [1] |
| --- | --- | --- | --- | --- | --- | --- | --- | --- | --- | --- | --- | --- | --- | --- | --- | --- | --- | --- | --- | --- |
| C[C@@H]1CN(c2ccc(C#N)c3ncccc23)C[C@H](C(=O)NC2CCN(C)CC2)O1 [ER-899464, (2R,6R)-4-(8-cyanoquinolin-5-yl)-6-methyl-N-(1-methylpiperidin-4-yl)morpholine-2-carboxamide] | No mortality was seen in the middle dose group | No statistically significant effect was observed | significantly reduced proteinuria | significant survival benefit |  |  |  |  |  |  |  |  |  |  |  |  |  |  |  |  |
| C[C@@H]1CN(c2ccc(C#N)c3ncccc23)C[C@H](C(=O)N[C@H]2CNC[C@H]2F)O1.Cl [ER-899742, (2R,6R)-4-(8-cyanoquinolin-5-yl)-N-[(3S,4R)-4-fluoropyrrolidin-3-yl]-6-methylmorpholine-2-carboxamide hydrochloride] | No mortality was seen with compound treatment | No statistically significant effect was observed | significantly reduced proteinuria | pronounced survival benefit | 11 | 11 | 5 | 1 | 1 | 6 | 15 | 1 | 1 | 0 | 11 | 9 | 7 | 0 | 2 | significantly reduced |
